pKi: −log10 of the molar value.
Columns and labels:
Assay in all cases: stopped-flow CO2 hydration assay
Assay type in all cases: biochemical
Conditions in all cases: read-out: Topiramate; mean of […] assays, errors […]
hCA IX = target: T1, hCA IX (Homo sapiens, UniProt Q16790)
T1 construct: gene CA9; tumor-associated isoform

hCA XIII = target: T2, hCA XIII (Homo sapiens, UniProt Q8N1Q1)
T2 construct: gene CA13; cytosolic isoform

hCA VI = target: T3, hCA VI (Homo sapiens, UniProt P23280)
T3 construct: gene CA6

hCA XIV = target: T4, hCA XIV (Homo sapiens, UniProt Q9ULX7)
T4 construct: gene CA14
T4 sequence (Q9ULX7 16-290 limits assumed): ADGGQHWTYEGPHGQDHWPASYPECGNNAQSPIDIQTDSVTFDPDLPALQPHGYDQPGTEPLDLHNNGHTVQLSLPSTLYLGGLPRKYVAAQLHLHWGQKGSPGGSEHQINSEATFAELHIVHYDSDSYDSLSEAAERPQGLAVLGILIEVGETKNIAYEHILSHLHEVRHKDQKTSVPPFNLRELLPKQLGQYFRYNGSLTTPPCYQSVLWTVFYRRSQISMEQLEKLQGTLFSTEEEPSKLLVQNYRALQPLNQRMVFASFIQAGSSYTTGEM

T2 sequence (Q8N1Q1 whole entry, canonical isoform): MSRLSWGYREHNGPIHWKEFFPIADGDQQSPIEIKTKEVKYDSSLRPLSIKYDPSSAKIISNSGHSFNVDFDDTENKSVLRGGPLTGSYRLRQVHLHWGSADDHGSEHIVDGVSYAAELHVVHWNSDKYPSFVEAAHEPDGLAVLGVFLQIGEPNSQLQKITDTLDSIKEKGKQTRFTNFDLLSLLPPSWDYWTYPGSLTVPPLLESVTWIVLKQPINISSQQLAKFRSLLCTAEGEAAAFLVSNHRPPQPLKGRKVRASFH
T3 sequence (P23280 18-308): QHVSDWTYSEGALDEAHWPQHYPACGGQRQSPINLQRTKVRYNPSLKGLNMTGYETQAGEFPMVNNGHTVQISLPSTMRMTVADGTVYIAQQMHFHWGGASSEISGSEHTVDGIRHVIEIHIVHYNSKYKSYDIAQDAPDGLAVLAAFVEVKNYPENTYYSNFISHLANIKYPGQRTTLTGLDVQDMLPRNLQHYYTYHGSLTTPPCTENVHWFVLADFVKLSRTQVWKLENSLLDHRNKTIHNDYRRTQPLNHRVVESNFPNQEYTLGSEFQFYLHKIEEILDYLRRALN

CC1(C)O[C@@H]2[C@@H](CO[C@@]3(COS(N)(=O)=O)OC(C)(C)O[C@@H]23)O1 [Topiramate]
pKi (hCA XIII): 7.33
pKi (hCA VI): 7.35
pKi (hCA XIV): 5.84
